Experimental data: US20050175688A1 (priority 2004, published 2005)

Assays:
[1] = test system: chronic pelvic pain/endometriosis; test: Potaba protocol study: oral Potaba in women with chronic pelvic pain/endometriosis; type: in vivo
Method: The total number of women under clinical examination was 212.
All of those who volunteered for the therapy protocol met the criteria of 10 points or more on the self-test, that threshold defining a subject who was at risk for endometriosis.
A pelvic pain assessment which was originated by the International Pelvic Pain Society© 1999 (IPPS) was also conducted. IPPS evaluated the volunteer subjects for the following information: pain, menses, bladder, bowel habits, gastro-intestinal/eating habits, health habits, coping mechanisms, a short form McGill questionnaire (psychological; level of depression assay), daily activities, personal history, surgical history, sexual history and physical history.
In addition to a careful review of the pre-test examinations of the prospective subjects, exclusion criteria were also established as a means of reducing unrelated influences into the test results.
Only one physician conducted the physical evaluation of each of the participants to ensure consistency throughout the study. In addition to repeated laboratory and thorough physical examinations, the examining physician personally discussed and recorded responses to questions about the presence or absence of side-effects and improvements in symptoms, if any. […] Although the subjects individual responses to questions regarding symptoms and particularly levels of pain experience throughout the test period inherently can include a subjective element, the questions were repetitiously and precisely posed to the subjects so as to prompt a consistent response minimally effected by the questioner's choice of words, tone, delivery, etc. The test subjects reported pelvic pain experience as a number selected between the levels of 1 to 10, with 1 being no pain experienced and 10 being the most severe level of pain.

Solubility in water = type: physicochemical
[2] = 12 grams/day po, out of 25 participants

## Nc1ccc(C(=O)O)cc1 [Potaba, aminobenzoate potassium]
[1]; [2]
  Discontinued Potaba protocol (reason): nausea, No. of Study Participants: 3
  Discontinued Potaba protocol (reason): rash, No. of Study Participants: 2
[1]; oral administration
  incidence of drug interactions: low incidence of drug interactions
[1]; oral administration, potassium
  toxicity / safety of oral administration (result in words): non-toxic and safe
Solubility in water
  solubility in water: highly soluble in water
